PubChem BioAssay (NCI)
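Tested at 5 concentrations; 48 h exposure; 96-well plates; endpoints linearly interpolated, else capped at highest concentration. Here, GI50 denotes the concentration required for 50% inhibition of growth. TGI: total growth inhibition.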

Tests used:
Test in all cases: NCI-60 cell line screen, 48 h
SF-539 CNS = tested on: SF-539 CNS
K-562 leukemia = tested on: K-562 leukemia
HL-60(TB) leukemia = tested on: HL-60(TB) leukemia
SN12C renal = tested on: SN12C renal
NCI-H23 lung = tested on: NCI-H23 lung
HT29 colon = tested on: HT29 colon
MALME-3M melanoma = tested on: MALME-3M melanoma
A498 renal = tested on: A498 renal
NCI-H522 lung = tested on: NCI-H522 lung
DU-145 prostate = tested on: DU-145 prostate

Structure (SMILES) | TGI (SF-539 CNS) [µM] | TGI (K-562 leukemia) [µM] | TGI (HL-60(TB) leukemia) [µM] | TGI (SN12C renal) [µM] | TGI (NCI-H23 lung) [µM] | TGI (HT29 colon) [µM] | TGI (MALME-3M melanoma) [µM] | TGI (A498 renal) [µM] | GI50 (SF-539 CNS) [µM] | GI50 (NCI-H522 lung) [µM] | TGI (NCI-H522 lung) [µM] | GI50 (SN12C renal) [µM] | GI50 (NCI-H23 lung) [µM] | GI50 (HT29 colon) [µM] | GI50 (MALME-3M melanoma) [µM] | GI50 (DU-145 prostate) [µM] | TGI (DU-145 prostate) [µM] | GI50 (A498 renal) [µM] | GI50 (K-562 leukemia) [µM] | GI50 (HL-60(TB) leukemia) [µM]
CNc1ccc2ncccc2c1[N+](=O)[O-] | > 100 | > 100 | > 100 | > 100 | > 100 | > 100 | > 100 | > 100 |  |  |  |  |  |  |  |  |  |  |  | 
NCCCCC1NC(=O)C(CC(=O)O)NC(=O)CNC(=O)C(CCCN=C(N)N)NC(=O)C(N)CSSCC(C(=O)O)NC(=O)C(CC(=O)O)NC(=O)C2CCCN2C(=O)CNC1=O (configuration not stated) | > 100 |  |  | > 100 | > 100 | > 100 | > 100 | > 100 | > 100 | > 100 | > 100 | > 100 | > 100 | > 100 | > 100 | > 100 | > 100 | > 100 |  | 
CCn1c(-c2cc3c([nH]c4ccccc43)c(-c3cccc(O)c3)n2)n[nH]c1=S | 9.27 | > 100 |  | 22.1 | 13.2 | 6.97 | 11.4 | 4.38 | 2.42 | 2.02 | 7.07 | 4.02 | 3.11 | 2.74 | 2.56 | 4.87 | 16.7 | 0.327 | 1.88 | 
N#C/C(=C\c1cccc(O)c1O)C(N)=O | > 100 | > 100 | 31.1 | > 100 | > 100 | > 100 | > 100 | > 100 |  |  | 58.4 |  |  |  |  |  |  |  |  | 
COc1ccc(Nc2nc3ccccc3c3occc23)cc1 | 18.9 | > 50 | > 50 | 17.5 | 12.4 |  |  |  | 8.89 | 14.5 | 33 | 7.37 | 5.72 |  |  | 6.65 | 13.1 |  | 6.74 | 10.3
Cl/C(N=Nc1ccccc1)=N/Nc1ccccc1 | > 100 | > 100 | > 100 | > 100 | > 100 | > 100 | > 100 | > 100 |  |  | > 100 |  |  |  |  |  |  |  |  | 
COc1ccc(-c2cc(C(=O)Nc3cc(C(F)(F)F)cc(C(F)(F)F)c3)c3ccccc3n2)cc1 | 28.4 | > 100 | > 100 | 25.1 | 19.2 | 36.1 | 46.4 | 40 |  |  |  |  |  |  |  |  |  |  |  | 
Cn1cccc1-c1cc(-c2ccccc2)[nH]c(=O)c1C#N | > 100 | > 100 |  | > 100 | > 100 | > 100 | > 100 | > 100 | > 100 | > 100 | > 100 | > 100 | > 100 | > 100 | > 100 | > 100 | > 100 | 25.6 | > 100 | 
[O-]c1ccccc1C=Nc1ccc2c(c1)CCC2.[O-]c1ccccc1C=Nc1ccc2c(c1)CCC2.[O]=[U+2]=[O] | > 100 | > 100 | > 100 | > 100 | > 100 | > 100 | > 100 | > 100 | 14.2 | > 100 | > 100 | > 100 | > 100 | > 100 | > 100 |  |  | > 100 | 11.8 | 9.43
CN(C)/C=N\c1ccnc(=O)[nH]1 | > 100 | > 100 | > 100 | > 100 |  | > 100 | > 100 | > 100 |  |  | > 100 |  |  |  |  |  |  |  |  | 
COc1ccc(OC(C(=O)O)C(C)C)c2c1CCCC2=O (configuration not stated) | > 100 | > 100 | > 100 | > 100 | > 100 | > 100 | > 100 | > 100 |  |  | > 100 |  |  |  |  |  |  |  |  | 
Cc1ccc(S(=O)(=O)N=NC=C2c3ccccc3N(O)c3ccccc32)cc1 |  | 13 | 4.62 | 16.6 | 19.3 | 13.2 | 25.5 | 13.9 |  |  | 3.86 |  |  |  |  |  |  |  |  | 
O=C(C#Cc1ccccc1)N1c2ccccc2CC1c1c[nH]c2ccccc12 (configuration not stated) | 31.1 | 49 | 36.2 | 26.9 | 32.4 | 40.6 | 37.6 | 73 |  |  | 24.1 |  |  |  |  |  |  |  |  | 
Cc1c2c(cc3c1C(=O)C(=O)C1=C3OC[C@@H]1C)C(C)(C)CCC2 | 29.8 | 34.5 | 26.9 | 34.6 | 28.4 | 32.5 | 29 | 59.6 |  |  |  |  |  |  |  |  |  |  |  | 
O=C1C(=O)N(c2ccc(Cl)cc2)C(=O)C(=O)C1c1nc2ccccc2s1 | > 100 | > 100 |  | > 100 | > 100 | > 100 | > 100 |  |  |  | > 100 |  |  |  |  |  |  |  |  | 
C#CCNC(=O)ON1C(=O)CCC1=O | > 100 | > 100 | > 100 | > 100 | > 100 | > 100 | > 100 | > 100 |  |  | > 100 |  |  |  |  |  |  |  |  | 
COc1ccc2c(c1OC)-c1c(c3ccc([N+](=O)[O-])cc3c(=O)n1CCCBr)C2=O |  | > 100 |  | > 100 |  |  | > 100 | > 100 |  | 27.6 | > 100 | 36.2 |  |  | 79.9 |  |  | > 100 | 99.7 | 
O=C1OC(c2ccccc2)=N/C1=C\c1ccc(Oc2ccc(Cl)c(Cl)c2)cc1 | 58.4 | 73.6 | 56.9 | > 100 | > 100 | > 100 | > 100 | > 100 |  |  | > 100 |  |  |  |  |  |  |  |  | 
NNc1cnn(-c2ccccc2)c(=O)c1Cl | > 100 | > 100 | > 100 | > 100 | > 100 | > 100 | > 100 | > 100 |  |  | > 100 |  |  |  |  |  |  |  |  | 
O=c1cccccc1NCCCCCCCNc1cccccc1=O | > 100 | > 100 | 30 | > 100 | > 100 | > 100 | > 100 |  |  |  | 55.2 |  |  |  |  |  |  |  |  | 
